The CheMixHub viscosity set

Assay: xn = mol fraction of the nth substance listed

COCCOCCOCCOC + CCCCCCO
101 kPa
Details	viscosity [mPa·s]
293.15 K, x1 = 0.04492	4.503
293.15 K, x1 = 0.09537	3.827
293.15 K, x1 = 0.1973	3.104
293.15 K, x1 = 0.2976	2.686
293.15 K, x1 = 0.4067	2.427
293.15 K, x1 = 0.5095	2.269
293.15 K, x1 = 0.6012	2.199
293.15 K, x1 = 0.6895	2.144
293.15 K, x1 = 0.7928	2.134
293.15 K, x1 = 0.8972	2.135
293.15 K, x1 = 0.9607	2.158
303.15 K, x1 = 0.04662	3.285
303.15 K, x1 = 0.09419	2.854
303.15 K, x1 = 0.2001	2.327
303.15 K, x1 = 0.2995	2.056
303.15 K, x1 = 0.4075	1.869
303.15 K, x1 = 0.5134	1.747
303.15 K, x1 = 0.5831	1.711
303.15 K, x1 = 0.6929	1.697
303.15 K, x1 = 0.7889	1.712
303.15 K, x1 = 0.9161	1.735
303.15 K, x1 = 0.9401	1.753
313.15 K, x1 = 0.04436	2.565
313.15 K, x1 = 0.09283	2.292
313.15 K, x1 = 0.2014	1.894
313.15 K, x1 = 0.2982	1.701
313.15 K, x1 = 0.41	1.56
313.15 K, x1 = 0.5102	1.491
313.15 K, x1 = 0.601	1.454
313.15 K, x1 = 0.6974	1.435
313.15 K, x1 = 0.8008	1.435
313.15 K, x1 = 0.8996	1.453
313.15 K, x1 = 0.9626	1.462

CCNCC + CCCCCO
viscosity [mPa·s], 100 kPa
Details	x1 = 0.0806	x1 = 0.1601	x1 = 0.236	x1 = 0.3486	x1 = 0.4399	x1 = 0.5596	x1 = 0.6501	x1 = 0.7397	x1 = 0.8494	x1 = 0.9401
293.15 K	3.45	2.94	2.51	1.92	1.52	1.09	0.833	0.645	0.476	0.373
303.15 K	2.61	2.22	1.87	1.43	1.12	0.79	0.618	0.496	0.386	0.323
313.15 K	2	1.7	1.43	1.09	0.847	0.594	0.47	0.38	0.317	0.28
323.15 K	1.54	1.31	1.09	0.83	0.64	0.45	0.357	0.3	0.261	0.245

Nc1ccccc1 + CCCCCO
viscosity [mPa·s]
Details	293.15 K	303.15 K	313.15 K	323.15 K
100 kPa, x1 = 0.0802	3.66	2.77	2.11	1.66
100 kPa, x1 = 0.1304	–	2.664	2.018	–
100 kPa, x1 = 0.1536	3.42	2.6	2.01	1.57
100 kPa, x1 = 0.2363	3.26	2.48	1.93	1.52
100 kPa, x1 = 0.2524	–	2.309	1.697	–
100 kPa, x1 = 0.3418	3.15	2.4	1.86	1.48
100 kPa, x1 = 0.3885	–	1.947	1.361	–
100 kPa, x1 = 0.4371	3.11	2.34	1.84	1.47
100 kPa, x1 = 0.4944	–	1.724	1.147	–
100 kPa, x1 = 0.5521	3.12	2.32	1.84	1.47
100 kPa, x1 = 0.5745	–	1.627	1.051	–
100 kPa, x1 = 0.6518	3.21	2.37	1.88	1.5
100 kPa, x1 = 0.6878	–	1.619	1.031	–
100 kPa, x1 = 0.7411	3.35	2.47	1.96	1.56
100 kPa, x1 = 0.8105	–	1.865	1.245	–
100 kPa, x1 = 0.8487	3.63	2.66	2.12	1.67
100 kPa, x1 = 0.924	–	2.42	1.75	–
100 kPa, x1 = 0.9425	4.04	2.95	2.32	1.83
101.33 kPa, x2 = 0.1207	3.714	–	–	–
101.33 kPa, x2 = 0.2883	3.273	–	–	–
101.33 kPa, x2 = 0.3221	3.227	–	–	–
101.33 kPa, x2 = 0.3789	3.161	–	–	–
101.33 kPa, x2 = 0.4074	3.138	–	–	–
101.33 kPa, x2 = 0.5661	3.087	–	–	–
101.33 kPa, x2 = 0.7695	3.258	–	–	–
101.33 kPa, x2 = 0.8055	3.326	–	–	–
101.33 kPa, x2 = 0.8557	3.444	–	–	–
101.33 kPa, x2 = 0.9099	3.605	–	–	–
101.33 kPa, x2 = 0.9484	3.756	–	–	–
101.33 kPa, x2 = 0.9525	3.775	–	–	–

Oc1ccc2ccccc2c1 + CCCCCOC(C)=O
Details	viscosity [mPa·s]
298.15 K, 101 kPa, x2 = 0.5	1.598

CC(C)C=O + CCCCO
100 kPa
Details	viscosity [mPa·s]
294.4 K, x1 = 0.76	8.02
296.4 K, x1 = 0.6	13.17
296.9 K, x1 = 0.9	5.36
314.5 K, x1 = 0.6	8.56

CCC(O)CO (stereo unspecified) + CCCCO
viscosity [mPa·s], 100 kPa
Details	x2 = 0.101	x2 = 0.2	x2 = 0.302	x2 = 0.4	x2 = 0.5	x2 = 0.501	x2 = 0.601	x2 = 0.701	x2 = 0.801	x2 = 0.901
298.15 K	34.46	23.34	17.03	12.19	8.818	–	6.546	5.014	3.978	3.113
303.15 K	25.85	17.61	13.14	10.08	7.482	–	5.629	4.383	3.441	2.757
308.15 K	19.83	13.86	10.42	8.155	6.2	–	4.703	3.738	2.982	2.41
313.15 K	15.54	10.92	8.434	6.703	5.179	–	3.992	3.217	2.596	2.122
318.15 K	12.35	8.882	6.942	5.58	–	4.373	3.419	2.793	2.271	1.874
323.15 K	9.916	7.286	5.744	4.694	–	3.724	2.942	2.417	1.989	1.66

Nc1ccccc1 + CCCCO
Details	viscosity [mPa·s]
298.15 K, 101 kPa, x1 = 0.09983	2.368
298.15 K, 101 kPa, x1 = 0.1935	2.278
298.15 K, 101 kPa, x1 = 0.3051	2.249
298.15 K, 101 kPa, x1 = 0.4055	2.287
298.15 K, 101 kPa, x1 = 0.4837	2.343
298.15 K, 101 kPa, x1 = 0.6005	2.474
298.15 K, 101 kPa, x1 = 0.6946	2.637
298.15 K, 101 kPa, x1 = 0.8028	2.899
298.15 K, 101 kPa, x1 = 0.8996	3.231
303 K, 101.33 kPa, x1 = 0.1	2.031
303 K, 101.33 kPa, x1 = 0.2	1.975
303 K, 101.33 kPa, x1 = 0.3	1.951
303 K, 101.33 kPa, x1 = 0.4	1.938
303 K, 101.33 kPa, x1 = 0.5	1.962
303 K, 101.33 kPa, x1 = 0.6	2.013
303 K, 101.33 kPa, x1 = 0.7	2.186
303 K, 101.33 kPa, x1 = 0.8	2.342
303 K, 101.33 kPa, x1 = 0.9	2.751
303.15 K, 100 kPa, x1 = 0.1195	2.083
303.15 K, 100 kPa, x1 = 0.2339	1.951
303.15 K, 100 kPa, x1 = 0.3649	1.857
303.15 K, 100 kPa, x1 = 0.4693	1.843
303.15 K, 100 kPa, x1 = 0.5498	1.878
303.15 K, 100 kPa, x1 = 0.6658	1.994
303.15 K, 100 kPa, x1 = 0.7945	2.261
303.15 K, 100 kPa, x1 = 0.9166	2.647
303.15 K, 101 kPa, x1 = 0.09983	2.049
303.15 K, 101 kPa, x1 = 0.1935	1.965
303.15 K, 101 kPa, x1 = 0.3051	1.941
303.15 K, 101 kPa, x1 = 0.4055	1.965
303.15 K, 101 kPa, x1 = 0.4837	2.01
303.15 K, 101 kPa, x1 = 0.6005	2.13
303.15 K, 101 kPa, x1 = 0.6946	2.248
303.15 K, 101 kPa, x1 = 0.8028	2.468
303.15 K, 101 kPa, x1 = 0.8996	2.745
308.15 K, 101 kPa, x1 = 0.09983	1.8
308.15 K, 101 kPa, x1 = 0.1935	1.734
308.15 K, 101 kPa, x1 = 0.3051	1.703
308.15 K, 101 kPa, x1 = 0.4055	1.722
308.15 K, 101 kPa, x1 = 0.4837	1.77
308.15 K, 101 kPa, x1 = 0.6005	1.857
308.15 K, 101 kPa, x1 = 0.6946	1.971
308.15 K, 101 kPa, x1 = 0.8028	2.144
308.15 K, 101 kPa, x1 = 0.8996	2.375
313.15 K, 100 kPa, x1 = 0.1195	1.605
313.15 K, 100 kPa, x1 = 0.2339	1.484
313.15 K, 100 kPa, x1 = 0.3649	1.39
313.15 K, 100 kPa, x1 = 0.4693	1.364
313.15 K, 100 kPa, x1 = 0.5498	1.393
313.15 K, 100 kPa, x1 = 0.6658	1.492
313.15 K, 100 kPa, x1 = 0.7945	1.709
313.15 K, 100 kPa, x1 = 0.9166	2.027
313.15 K, 101 kPa, x1 = 0.09983	1.568
313.15 K, 101 kPa, x1 = 0.1935	1.5
313.15 K, 101 kPa, x1 = 0.3051	1.44
313.15 K, 101 kPa, x1 = 0.4055	1.468
313.15 K, 101 kPa, x1 = 0.4837	1.529
313.15 K, 101 kPa, x1 = 0.6005	1.613
313.15 K, 101 kPa, x1 = 0.6946	1.709
313.15 K, 101 kPa, x1 = 0.8028	1.861
313.15 K, 101 kPa, x1 = 0.8996	2.048
